Literature values, collected in paper PMC4291223, “Inhibitors of CLK Protein Kinases Suppress Cell Growth and Induce Apoptosis by Modulating Pre-mRNA Splicing” (PLoS ONE, 2015).

Test system: CLK1 and CLK4
Set-up: method as in PMID 15010457
Settings: cited from earlier work

## CCN1/C(=C/C(C)=O)Sc2ccc(OC)cc21 [TG003]
  CLK selectivity: selectively inhibits CLK1 and CLK4
